Measurements: patent publication US20250268854A1, “2-AMINO-5,5-DIMETHYLHEXANOIC ACID DERIVATIVES AS SORTILIN MODULATORS FOR USE IN THE TREATMENT OF DISEASE OF THE CENTRAL NERVOUS SYSTEM” (c/o Vesper Bio ApS, priority 2021, published 2025)
Counter-ions that a name gives are not always drawn. Each block holds one compound with its values, some of them ahead of it.

Key:
in vivo = settings: mouse, Kpuu
Procedure: (§12) Separately, the fraction of compound bound to plasma protein or brain homogenate was measured to allow assessment of free fractions.
(§13) In practice, unbound fractions in plasma and brain tissue were assessed using rapid equilibrium dialysis in vitro. Separately a pharmacokinetic study was run in vivo whereby a dose of the compound of interest was given at T=0 hours and at subsequent timepoints (eg 0.5, 1 and 4 hours) plasma and separately brain samples were analysed for total concentration of the compound of interest. These total concentrations could then be adjusted with the unbound fraction to give the unbound concentrations in the plasma and brain. The unbound partition coefficient (Kpuu) was then determined as a ratio between the free compound concentrations in the compartment of interest, here the brain/CNS and the plasma.
(§14) The compound is administered to the animal in a suitable vehicle at T=0 hours. At one hour post administration plasma and separately brain are removed, prepared and analysed for total compound concentration.
(§15) Mouse brain samples were prepared for analysis by homogenization with Omni bead ruptor, using 4-fold volume of 150 mM phosphate buffered saline (PBS) (E.g. 400 uL PBS+100 mg brain). After homogenization, a 30 μL homogenate sample was mixed with 60 μL of internal standard solution (100 ng/ml of repaglinide and phenacetin in acetonitrile (ACN) containing 1% formic acid) and mixed. Samples were centrifuged for 20 minutes (4000 rpm, Thermo Scientific SL16) and 50 μl of supernatant, together with 100 μl of 50% acetonitrile was transferred on an analytical plate. Standard samples were prepared by spiking blank brain homogenate to obtain concentrations from 0.1 to 10 000 ng/ml in brain homogenate by using one volume of spiking solution and nine volumes of blank homogenate. Quality control (QC) samples were prepared for concentrations at 3, 30, 300 and 3000 ng/ml by using one volume of spiking solution and nine volumes of blank brain homogenate. The standards and QCs were then prepared for analysis similarly as the samples. Blank brain matrix was collected in-house from CD-1 mice.
(§16) The samples were prepared by mixing 30 μL of plasma sample with 60 μL of internal standard solution (100 ng/ml of repaglinide and phenacetin in ACN with 1% of formic acid) and mixed. Samples were centrifuged for 20 minutes (4000 rpm, Thermo Scientific SL16) and 50 μl of supernatant, together with 100 μl of 50% acetonitrile was transferred on analytical plate. 10 μl of diluted samples were transferred on analytical plate and further diluted with 190 μl of 50% acetonitrile. Standard samples were prepared by spiking blank plasma to obtain concentrations from 0.1 to 10 000 ng/ml in plasma by using one volume of spiking solution and nine volumes of blank plasma. Quality control (QC) samples were prepared for concentrations at 3, 30, 300 and 3000 ng/ml by using one volume of spiking solution and nine volumes of plasma. The standards and QCs were then prepared for analysis similarly as the samples. Blank plasma was collected in-house from CD-1 mice.
(§17) Instrumentation: Waters Acquity UPLC+Waters TQ-S triple quadrupole MS; Column: Waters Acquity HSS T3 (2.1×50 mm, 1.8 μm) column with pre-column filter; Gradient Elution; A=0.1% Formic acid, B=Acetonitrile

[1] = Blood-brain-barrier permeability of study compounds in mice after PO administration; settings: mouse; for concentration at 1 h: po, T = 1 hour; for blood brain barrier penetration: conclusion in words; for Kp uu at 1 h: brain and plasma (unbound concentrations), oral, Kpuu, ratio of unbound brain to unbound plasma concentration
Procedure: as §12, §13, §14, §15, §16, §17

[2] = Plasma protein binding by rapid equilibrium dialysis; assay type: in vitro ADME; settings: 37° C.; for Mouse Plasma Unbound (Fu, %): CD1-mouse plasma, 5 μM, 4 hours; for fraction unbound at 4 h, 5 μM: pH 7.4, CD1-mouse plasma, read-out: Mouse Plasma Unbound (Fu, %)
Procedure: (§1) Rapid Equilibrium Dialysis The test compounds were incubated in CD1-mouse plasma and brain homogenate at 37° C. in RED device with inserts (8K MWCO, Thermo scientific) for 4 hours at 5 μM in triplicates. 350 μL of 150 mM phosphate buffered saline (PBS, pH 7.4) was used as the receiver side solutions. The samples were collected from both sides after 4 hours equilibration time and their matrices were made similar by diluting the donor side sample using blank PBS, and by diluting the receiver side sample using blank plasma/phosphate buffered saline. After the incubation, aliquots of donor side matrixes were diluted with an equal volume of the blank receiver side matrix and aliquots of receiver side matrixes were diluted with an equal volume of blank donor side matrix. All samples were protein precipitated by addition of a two-fold volume of acetonitrile containing 100 nM of repaglinide as an internal standard. After 10-minute centrifugation at 13 200 rpm, the sample supernatants were analysed with an LC-MS/MS, to obtain the unbound fraction of the test compound (Fub). The unbound fraction was calculated from the peak area ratios obtained for each matrix: […]
where CPBS and Cplasma are the analyte concentrations in PBS (receiver) and plasma (donor), respectively.
(§2) Recovery samples were prepared in each condition but without dialysis, and were used for evaluation of recovery from the dialysis experiment using following formula: […]
(§3) where VPBS is the volume on the receiver side (PBS) and Vplasma is the volume on donor side (plasma) of the dialysis device. Crecovery is the analyte concentration measured from the recovery sample.
(§4) Propranolol (1 μM) and fluoxetine (5 μM) were included in the experiment as a control compounds.

[3] = Brain homogenate binding by rapid equilibrium dialysis; assay type: in vitro ADME; settings: 37° C.; for Mouse Brain Unbound (Fu, %): 5 μM, 4 hours, dilution factor 5; for fraction unbound at 4 h, 5 μM: CD1, pH 7.4, mouse brain homogenate, dilution factor 5, read-out: Mouse Brain Unbound (Fu, %)
Procedure: as §1, §2, §3, §4
The unbound fraction in brain (Fub, brain) was calculated from the measured value in brain homogenate (Fub, meas), taking into account the dilution factor used in preparing the brain homogenate:
where D=dilution factor (here 5).

mouse Sortilin = mouse Sortilin (Mus musculus (Mouse), UniProt Q6PHU5); experiment: Creoptix (GCI) binding kinetics, mouse Sortilin; settings: screened at 1 μM
Procedure: (§5) A protein, bound to a surface, is bathed in a solution containing potential ligands giving rise to binding kinetics to generate Kon and Koff rates, as well as a Kd.
(§6) All buffers described were filtered using a 0.2 μm filter (Product number: 10300461, Nalgene) and degassed for 15 minutes prior to use.
(§7) A flow cell temperature of 25 degrees Celsius was used throughout the experiment.
(§8) A 4PCH chip was conditioned across all flow cells using 0.2× concentration running buffer (running buffer composition: 1×HBS-N, pH 7.4, 3.4 mM EDTA, 1% DMSO) using pre-set conditioning wizard (WAVE control software) injecting: 0.1 M borate, 1 M NaCl (pH 9) followed by three start-up injections of 0.2× running buffer.
(§9) A buffer exchange was performed and 1× running buffer (1×HBS-N, pH 7.4, 3.4 mM EDTA, 1% DMSO) used during the immobilisation procedure:
(§10) An initial injection of EDC/NHS (mixed in 1:1 ratio) was performed across all 4-flow cells to activate the surface for amine coupling of ligands.
Recombinant Sortilin aliquots were thawed quickly by hand and centrifuged at 13,300 rpm for 10 minutes. […]
(§11) Data was evaluated using the RAPID kinetic analysis tool in the GCI WAVE_control software with data fitted using a standard 1:1 kinetic BioModel.

human Sortilin = human Sortilin (Homo sapiens (Human), UniProt Q99523); experiment: Creoptix (GCI) binding kinetics, human Sortilin; settings: screened at 1 μM
Procedure: as §5, §6, §7, §8, §9, §10
Recombinant Sortilin aliquots were thawed quickly by hand and centrifuged at 13,300 rpm for 10 minutes. A 10 μg/ml protein solution was then made in pH 5.0 acetate and injected once for 20 minutes over flow-cells 2, 3 and 4 for human, human (flow cells 2 & 3), and mouse Sortilin respectively followed by a 60 second dissociation period.
A final 7-minute passivation injection of 50 mM tris was used across all flow cells.
A flow rate of 10 μl/min was used for all conditioning and immobilisation cycles.
Compounds were screened at 1 μM using the in-built ‘intermediate binders’ settings: 100 ul/min, 45 s baseline, 25 s association, 300 s dissociation, with blanks every 5th sample and a DMSO correction (1.5% DMSO at the start and end of the experiment as well as every 20 cycles. An acquisition rate of 10 Hz was used throughout the experiment.
Compounds were screened at a final assay concentration of 1 μM and a final DMSO concentration was 1%. To achieve this, compounds were diluted in DMSO from 10 mM stocks to 100 μM (100×final assay concentration) then diluted 1:100 in running buffer which contained no DMSO to establish a final assay concentration of compound of 1 μM and a final DMSO concentration of 1% [DMSO].
Compounds and DMSO were mixed by plate shaking at 1000 rpm for 60 seconds using a Bioshake instrument.
A flow rate of 100 μl/min was used throughout the experiment.
as §11

h-Sortilin = h-Sortilin (Homo sapiens (Human), UniProt Q99523); experiment: Neurotensin (NTS) scintillation proximity assay (SPA): displacement of [3H]-neurotensin binding; settings: 150 nM 6his-Sortilin, 5 nM [3H]-Neurotensin; average of at least 2 determinations
Procedure: The exemplified compounds of the invention were tested in a Neurotensin (NTS) scintillation proximity assay (SPA). NTS, which is a 13 amino acid neuropeptide, is a sortilin ligand. The IC50 is a measure of the amount of the compound required to inhibit the binding of NTS to sortilin by 50%. […] Compound affinity was determined by measuring the displacement of [^3H]-neurotensin binding to h-Sortilin in SPA format. […] IC50 values were calculated by nonlinear regression using the sigmoid concentration-response (variable slope) using CDD Vault software. All values reported are average of at least 2 determinations.

[4] = brain, Brain Tissue Concentration (ng/g) T = 1 hour
[5] = brain, Unbound Brain Concentration (ng/mL) T = 1 hour
[6] = plasma, Total Plasma Concentration (ng/ml) T = 1 hour
[7] = plasma, Unbound Plasma Concentration (ng/mL) T = 1 hour

Sequence of h-Sortilin (Q99523 78-831): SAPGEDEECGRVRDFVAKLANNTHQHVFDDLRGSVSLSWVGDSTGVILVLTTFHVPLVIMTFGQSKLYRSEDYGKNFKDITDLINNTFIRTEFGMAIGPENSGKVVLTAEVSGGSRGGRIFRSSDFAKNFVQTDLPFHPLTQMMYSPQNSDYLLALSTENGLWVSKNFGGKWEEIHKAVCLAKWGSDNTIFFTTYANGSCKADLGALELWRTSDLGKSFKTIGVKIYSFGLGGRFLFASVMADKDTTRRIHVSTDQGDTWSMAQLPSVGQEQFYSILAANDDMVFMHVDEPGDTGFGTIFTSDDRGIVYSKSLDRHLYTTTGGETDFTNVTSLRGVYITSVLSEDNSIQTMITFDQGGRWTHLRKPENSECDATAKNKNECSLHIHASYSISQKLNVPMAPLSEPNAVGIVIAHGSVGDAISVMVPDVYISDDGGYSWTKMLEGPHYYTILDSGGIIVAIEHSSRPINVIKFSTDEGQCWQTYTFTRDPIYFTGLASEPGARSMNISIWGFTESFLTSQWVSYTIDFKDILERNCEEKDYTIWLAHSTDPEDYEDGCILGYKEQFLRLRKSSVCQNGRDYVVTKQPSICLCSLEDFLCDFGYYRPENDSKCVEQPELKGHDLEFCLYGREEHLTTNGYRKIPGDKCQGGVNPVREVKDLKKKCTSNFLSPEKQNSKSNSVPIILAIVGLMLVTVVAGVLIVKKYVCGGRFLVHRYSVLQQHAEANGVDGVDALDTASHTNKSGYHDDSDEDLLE
Sequence of human Sortilin (Q99523 78-755): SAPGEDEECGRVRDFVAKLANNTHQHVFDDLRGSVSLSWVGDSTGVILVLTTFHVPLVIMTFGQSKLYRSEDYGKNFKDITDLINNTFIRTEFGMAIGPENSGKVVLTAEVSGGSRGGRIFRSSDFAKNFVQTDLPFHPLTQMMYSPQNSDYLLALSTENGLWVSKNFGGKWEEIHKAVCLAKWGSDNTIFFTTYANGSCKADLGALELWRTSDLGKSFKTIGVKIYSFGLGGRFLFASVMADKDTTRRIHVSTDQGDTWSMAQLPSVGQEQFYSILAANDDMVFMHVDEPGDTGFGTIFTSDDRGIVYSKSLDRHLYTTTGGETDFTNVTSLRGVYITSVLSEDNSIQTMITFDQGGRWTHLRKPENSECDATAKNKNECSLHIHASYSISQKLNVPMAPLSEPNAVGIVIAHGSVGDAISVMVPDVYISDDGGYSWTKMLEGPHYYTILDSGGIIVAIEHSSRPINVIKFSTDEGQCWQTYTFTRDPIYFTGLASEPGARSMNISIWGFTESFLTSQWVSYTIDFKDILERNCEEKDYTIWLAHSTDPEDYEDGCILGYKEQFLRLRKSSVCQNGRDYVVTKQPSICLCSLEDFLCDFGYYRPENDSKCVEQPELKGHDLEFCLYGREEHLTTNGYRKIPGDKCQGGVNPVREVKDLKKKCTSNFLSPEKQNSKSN
Sequence of mouse Sortilin (Q6PHU5 76-753): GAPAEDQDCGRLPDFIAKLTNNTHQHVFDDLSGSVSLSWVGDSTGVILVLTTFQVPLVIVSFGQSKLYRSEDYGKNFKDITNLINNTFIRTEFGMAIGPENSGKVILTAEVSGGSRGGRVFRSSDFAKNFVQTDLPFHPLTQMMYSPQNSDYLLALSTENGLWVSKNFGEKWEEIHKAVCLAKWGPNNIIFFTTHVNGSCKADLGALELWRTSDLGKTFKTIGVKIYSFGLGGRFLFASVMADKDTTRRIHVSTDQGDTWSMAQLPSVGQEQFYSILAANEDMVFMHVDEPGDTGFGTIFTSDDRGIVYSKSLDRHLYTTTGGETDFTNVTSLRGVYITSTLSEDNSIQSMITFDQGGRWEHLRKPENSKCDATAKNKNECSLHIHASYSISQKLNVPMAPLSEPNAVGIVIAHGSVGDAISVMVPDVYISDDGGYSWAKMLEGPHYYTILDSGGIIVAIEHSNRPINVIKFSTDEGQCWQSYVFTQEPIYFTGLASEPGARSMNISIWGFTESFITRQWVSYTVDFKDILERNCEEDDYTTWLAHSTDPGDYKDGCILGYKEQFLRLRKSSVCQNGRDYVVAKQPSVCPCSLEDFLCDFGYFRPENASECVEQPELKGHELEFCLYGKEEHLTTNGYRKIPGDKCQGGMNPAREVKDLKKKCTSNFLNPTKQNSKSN

Compound: Cc1cccc(NC(=O)c2ccc(C(F)(F)F)cc2C(=O)O)n1 [Comparative Example 1, reference compound]
Kp uu at 1 h (in vivo): < 0.1
concentration at 1 h [1, 4]: 0.9 ng/g
concentration at 1 h [1, 5]: 0.2 ng/mL
concentration at 1 h [1, 6]: 393 ng/mL
concentration at 1 h [1, 7]: 27 ng/mL
blood brain barrier penetration [1]: did not show a blood brain barrier penetration

Compound: COc1cccc(CN[C@@H](CCC(C)(C)C)C(=O)O)c1.Cl [Example 5, (2S)-2-{[(3-methoxyphenyl)methyl]amino}-5,5-dimethylhexanoic acid]
Mouse Plasma Unbound (Fu, %) [2]: 3.3%
fraction unbound at 4 h, 5 μM [2]: 0.033
Mouse Brain Unbound (Fu, %) [3]: 29.1%
fraction unbound at 4 h, 5 μM [3]: 0.291
Kd (mouse Sortilin; HCl salt): 1020 nM
Kd (human Sortilin; Free acid): 1930 nM
Kd (human Sortilin; Ms salt): 423 nM
Kd (human Sortilin; MsOH salt): 396 nM
Kp uu at 1 h [1]: > 0.1
concentration at 1 h [1, 4]: 48.5 ng/g
concentration at 1 h [1, 5]: 14 ng/mL
concentration at 1 h [1, 6]: 3560 ng/mL
concentration at 1 h [1, 7]: 117 ng/mL
blood brain barrier penetration [1]: permeate the blood brain barrier
IC50 (h-Sortilin): 560 nM

Compound: Cn1ccc2c(CN[C@@H](CCC(C)(C)C)C(=O)O)cccc21 [Example 6, (S)-5,5-dimethyl-2-(((1-methyl-1H-indol-4-yl)methyl)amino)hexanoic acid hydrochloride]
Mouse Plasma Unbound (Fu, %) [2]: 5.8%
fraction unbound at 4 h, 5 μM [2]: 0.058
Mouse Brain Unbound (Fu, %) [3]: 22.9%
fraction unbound at 4 h, 5 μM [3]: 0.229
Kp uu at 1 h [1]: > 0.1
concentration at 1 h [1, 4]: 6.25 ng/g
concentration at 1 h [1, 5]: 1.4 ng/mL
concentration at 1 h [1, 6]: 138 ng/mL
concentration at 1 h [1, 7]: 8 ng/mL
blood brain barrier penetration [1]: permeate the blood brain barrier
IC50 (h-Sortilin): 330 nM

Compound: CC(C)(C)CC[C@H](NCc1cnc2cccnc2c1)C(=O)O [Example 103, (2S)-5,5-dimethyl-2-{[(1,5-naphthyridin-3-yl)methyl]amino}hexanoic acid]
Kd (human Sortilin; Free acid): 83.2 nM
IC50 (h-Sortilin): 160 nM

Compound: COc1ccc([C@@H](C)N[C@@H](CCC(C)(C)C)C(=O)O)cc1OC [Example 107, (2S)-2-{[(1R)-1-(3,4-dimethoxyphenyl)ethyl]amino}-5,5-dimethylhexanoic acid]
Kd (human Sortilin; Free acid): 443 nM
IC50 (h-Sortilin): 930 nM

Compound: COc1ccc([C@H](N[C@@H](CCC(C)(C)C)C(=O)O)C(F)F)cc1OC [Example 112, (2S)-2-{[(1S)-1-(3,4-dimethoxyphenyl)-2,2-difluoroethyl]amino}-5,5-dimethylhexanoic acid]
Kd (human Sortilin; Free acid): 183 nM
IC50 (h-Sortilin): 280 nM

Compound: COc1ccc([C@@H](N[C@@H](CCC(C)(C)C)C(=O)O)C(F)(F)F)cc1OC [Example 115, (2S)-2-{[(1R)-1-(3,4-dimethoxyphenyl)-2,2,2-trifluoroethyl]amino}-5,5-dimethylhexanoic acid]
Kd (human Sortilin; Free acid): 351 nM
IC50 (h-Sortilin): 420 nM

Compound: CC(C)(C)CC[C@H](NCc1ccc(Cl)c(Cl)c1)C(=O)O [Example 125, (2S)-2-{[(3,4-dichlorophenyl)methyl]amino}-5,5-dimethylhexanoic acid]
Kd (human Sortilin; Ms salt): 522 nM
IC50 (h-Sortilin): 550 nM

Compound: Cc1ccc(CN[C@@H](CCC(C)(C)C)C(=O)O)c2ccn(C)c12 [Example 131, (S)-2-(((1,7-dimethyl-1H-indol-4-yl)methyl)amino)-5,5-dimethylhexanoic acid, Mesylic acid]
Kd (human Sortilin; Free acid): 97.6 nM
IC50 (h-Sortilin): 380 nM

Compound: Cc1ccc(CN[C@@H](CCC(C)(C)C)C(=O)O)cc1C [Example 137, (S)-2-((3,4-dimethylbenzyl)amino)-5,5-dimethylhexanoic acid, Mesylic acid]
Kd (human Sortilin; Free acid): 208 nM
IC50 (h-Sortilin): 740 nM

Other lines, results leading:

Kd (mouse Sortilin; Free acid): 1050 nM
Kd (human Sortilin; Free acid): 895 nM
IC50 (h-Sortilin): 650 nM
Compound: CC(C)(C)CC[C@H](NCc1cnc2ccccc2c1)C(=O)O [Example 35, (2S)-5,5-dimethyl-2-{[(quinolin-3-yl)methyl]amino}hexanoic acid]

Kd (human Sortilin; Free acid): 407 nM
IC50 (h-Sortilin): 540 nM
Compound: COc1ccc([C@@H](C)N[C@@H](CCC(C)(C)C)C(=O)O)cc1C [Example 102]

Kd (human Sortilin; Free acid): 625 nM
IC50 (h-Sortilin): 320 nM
Compound: COc1ccc([C@@H](N[C@@H](CCC(C)(C)C)C(=O)O)C(F)F)cc1OC [Example 113, (2S)-2-{[(1R)-1-(3,4-dimethoxyphenyl)-2,2-difluoroethyl]amino}-5,5-dimethylhexanoic acid]

Kd (human Sortilin; Free acid): 132 nM
IC50 (h-Sortilin): 220 nM
Compound: COc1ccc([C@H](N[C@@H](CCC(C)(C)C)C(=O)O)C(F)(F)F)cc1OC [Example 114, (2S)-2-{[(1S)-1-(3,4-dimethoxyphenyl)-2,2,2-trifluoroethyl]amino}-5,5-dimethylhexanoic acid]

Kd (human Sortilin; Ms salt): 512 nM
IC50 (h-Sortilin): 390 nM
Compound: Cc1ccc(CN[C@@H](CCC(C)(C)C)C(=O)O)cc1Cl [Example 129, (2S)-2-{[(3-chloro-4-methylphenyl)methyl]amino}-5,5-dimethylhexanoic acid]

Kd (human Sortilin; Free acid): 456 nM
IC50 (h-Sortilin): 850 nM
Compound: COc1ccc(F)c(CN[C@@H](CCC(C)(C)C)C(=O)O)c1 [Example 140, (2S)-2-{[(2-fluoro-5-methoxyphenyl)methyl]amino}-5,5-dimethylhexanoic acid]

Kd (human Sortilin; Free acid): 310 nM
IC50 (h-Sortilin): 430 nM
Compound: COc1cncc(CN[C@@H](CCC(C)(C)C)C(=O)O)c1 [Example 144, (2S)-2-{[(5-methoxypyridin-3-yl)methyl]amino}-5,5-dimethylhexanoic acid]
